Assay results from patent US12539337B2 (priority 2013, dated 2026).
“Also recorded” adds a separate entry of the source.

Assays:
sNMDARs = test: Whole-cell patch-clamp recordings of spontaneous NMDAR-mediated sEPSCs in cerebrocortical neurons; type: cell-based, rat; details: free memantine at 10 μM
Protocol: Whole-cell voltage-clamp recordings were performed from neurons after 14 days in vitro. […] All recordings were performed using an Axopatch 200B amplifier (Molecular Devices; Sunnyvale, CA, USA) at room temperature with a holding potential of −70 mV. Currents were digitally sampled at 10-20 kHz and filtered at 2-5 kHz.
Currents were acquired using a Digidata 1322 interface and pClamp 10.1 software. All recordings were made at room temperature at a holding potential of −70 mV. The extracellular solution contained the following: 137 mM NaCl, 1 mM NaHCO3, 0.34 mM Na2HPO4, 5.36 mM KCl, 0.44 mM KH2PO4, 3 mM CaCl2, 5 mM HEPES, 22.2 mM glucose, 0.01 mM glycine, and 0.003 mM strychnine, pH adjusted to 7.2. […]
The spontaneous NMDAR-mediated sEPSCs are usually presented as bursts, with each burst consisting of multiple EPSCs. […] Then, the values for charge transfer of each NMDAR-mediated sEPSC starting from the peak of the first NMDAR-mediated sEPSC and continuing to the baseline were determined, which took about 2 seconds in the majority of analyzed sEPSCs. […] Additionally, the frequency and amplitude of NMDAR-mediated sEPSCs were calculated for each experimental condition during about 100 seconds of recording time. The mean amplitude was calculated by averaging the amplitude of the maximal NMDA-mediated current in each burst. […]

NMDARs = type: cell-based, rat; details: memantine alone; read-out: IC50 for blocking NMDARs
Protocol: Primary cerebrocortical cultures were made from E16 rat pups and grown on 12-mm glass coverslips. Briefly, cortices were dissected from 1 to 2 days old rats and enzymatically treated (papain, 200 U/ml; 30 minutes, 37° C.). After mechanical dissociation in minimum essential medium (MEM; Gibco; Grand Island, NY, USA), the cells were plated into culture flasks and grown at 37° C. in a humidified 5% CO2/95% air atmosphere.
Whole-cell voltage-clamp recordings were performed from neurons after 14 days in vitro. The extracellular solution contained: 135 mM NaCl, 2.5 mM KCl, 2 mM CaCl2, 0-0.01 mM MgCl2, 1 mM NaHCO3, 0.34 mM Na2HPO4, 0.44 mM KH2PO4, 20 mM glucose, 10 mM Hepes, pH 7.4. Patch electrodes with a final tip resistance of 4-7 MΩ, were filled with a solution containing (in mM): 120 mM CsCl, 20 mM tetraethylammonium chloride (TEA-Cl), 10 mM Hepes, 2.25 mM EGTA, 1 mM CaCl2, 2 mM MgCl2, 0.001 mM and phalloidin, pH 7.4. pCLAMP 10 software (Molecular Devices; Sunnyvale, CA, USA) was used for data acquisition and analysis. All recordings were performed using an Axopatch 200B amplifier (Molecular Devices; Sunnyvale, CA, USA) at room temperature with a holding potential of −70 mV. […]
To evaluate their pharmacological profile, the effects of Au-Mem on NMDAR-mediated currents were evaluated in cerebrocortical neurons using patch-clamp whole-cell recordings. […]

For `CC12CC3CC(C)(C1)CC(N)(C3)C2` [memantine, 3,5-dimethyladamantan-1-amine], the “effect on synaptic activity (sEPSCs)” value (sNMDARs) was “almost completely inhibit; also recorded: did block it” and the IC50 (NMDARs) was ~1000 nM.
